# Values of other authors as cited in patent publication US7527814B2, “Process for the isolation of calliterpenone” (Council of Scientific and Industrial Research, priority 2006, dated 2009).
# Assays:
# [1] = tested on: plant growth; details: if used in a particular method
# [2] = tested on: growth retardant effects produced by allelochemicals; details: Singh et al., U.S. Pat. No. 6,673,749 (2004)
structure (smiles),measurement,setting,value
"CC1(C)C(=O)CC[C@@]2(C)[C@H]1CC[C@@]13C[C@H](CC[C@@H]12)[C@@](O)(CO)C3 [calliterpenone, 16α,17 dihydroxy-3-oxo phyllocladane]",plant growth promoting effect compared with GA3,[1],better plant growth promoting effect than GA3
same,effect on growth retardant effects produced by allelochemicals,[2],antagonizes the growth retardant effects produced by allelochemicals
